Results from paper PMC4215638, “J-147 a Novel Hydrazide Lead Compound to Treat Neurodegeneration: CeeTox™ Safety and Genotoxicity Analysis” (Journal of neurology & neurophysiology, 2013).

Experiment: Drug solubility in culture medium (light scattering, Nepheloskan)
Type: physicochemical
Conditions: complete culture medium with serum; medium with 10% bovine serum and 10% calf serum, 37°C; read-out: Solubility in the culture medium system
Experimental: The final concentration of DMSO in the 0–100 μM solutions was 0.5% and at the 300 μM solution DMSO was 1.5%. The final dosing solutions were prepared in Eagles Minimum Essential Medium. All experiments that used DMSO as the drug solvent also included a DMSO negative control. Negative controls of medium plus DMSO (0.5%) were included with and without cells. A positive control for complete cell death received 1 mM digitonin in medium on the day of dosing.
The samples were evaluated using light scattering with a Nepheloskan instrument. A reading that was greater than or equal to 3 times background was considered the limit of solubility.

## COc1cccc(/C=N/N(C(=O)C(F)(F)F)c2ccc(C)cc2C)c1 [J-147, (E)-N-(2,4-Dimethylphenyl)-2,2,2-trifluoro-N′-(3-methoxybenzylidene) acetohydrazide]
  solubility: ≥ 300 µM
